Reference: US20200030388A1, “COMPOSITIONS FOR MODIFYING GUT MICROBIOTA” (priority 2017, published 2020)
Where “and” joins values, the source holds several entries; their conditions need not be identical. Equal values may be shown once. Marks after values point to notes of the source that are not given here.

Columns and labels:
[1] = system: HFD-Induced Obese Mice (C57BL/6); test: GAR, FOR, LMIX, HMIX in HFD-induced obese mice, 12 weeks (Example 4)
Protocol: (§1) Four-week-old, male C57BL/6 mice were purchased from the BioLASCO Experimental Animal Center (Taiwan Co., Ltd., Taipei, Taiwan) and housed in a controlled atmosphere (25±1° C. at 50% relative humidity) with a 12 h light/12 h dark cycle. After 1 week of acclimation, animals were randomly distributed into 6 groups as follows: normal diet (ND, 15% energy from fat), high-fat diet (HFD, 50% energy from lard-based fat), and HFD supplemented with 0.01% garcinol (GAR group), 0.025% Forskolin (FOR group), 0.005% GAR+0.025% FOR (LMIX group), and 0.01% Gar+0.025% For (HMIX group) for 12 weeks. […] Animals had free access to food and water. Food consumption was monitored daily and the body weight was recorded weekly. At the end of the experiments, all animals were sacrificed by CO2 asphyxiation. Blood samples were collected from the heart for biochemical analysis. The liver, spleen, kidney, fat pads (perigonadal, retroperitoneal, and mesenteric fat), and fresh fecal pellets were immediately removed and stored at −80° C. until further analysis.
(§2) Liver and the perigonadal adipose tissue were dissected and fixed in 10% buffered formalin for at least 24 h, dehydrated with a sequence of ethanol solutions, and processed for embedding in paraffin. Sections of 4 μm in thickness were cut, deparaffinized, rehydrated, stained with hematoxylin and eosin (H&E), and subjected to photo microscopic observation. Adipocyte size was measured at 100× magnification and determined by Image J software (U. S. National Institutes of Health, Bethesda, Md., USA).

[2] = system: Gut Microbiota in HFD-Fed Mice; test: Gut microbiota classification by next generation sequencing (Example 4); type: in vivo, mouse
Protocol: Total DNA was extracted from fresh fecal samples by using the innuPREP Stool DNA kit (Analytik Jena AG, Jena, Germany) according to the manufacturer's instructions. According to the concentration, DNA was diluted to 1 ng μ L^−1 using sterile water. 6SrRNA/18SrRNA/ITS genes of distinct region (16SV4/16SV3/16SV3-V4/16SV4-V5, 18S V4/18S V9, ITS1/ITS2, Arc V4) were amplified using a specific primer (e.g. 16SV4: 515F-806R, 18S V4: 528F-706R, and 18S V9: 1380F-1510R) with a barcode. All PCR reactions were carried out using a Phusion® High-Fidelity PCR master mix (New England Biolabs, Ipswich, Mass., USA). The PCR products were mixed in ratios of equal density. Then, the mixed PCR products were purified using a Qiagen gel extraction kit (Qiagen, Hilden, Germany). Sequencing libraries were generated using the TruSeq® DNA PCR-free sample preparation kit (Illumina, San Diego, Calif., USA) following the manufacturer's recommendations, and index codes were added. The library quality was assessed using the Qubit@ 2.0 Fluorometer (Thermo Scientific) and Agilent Bioanalyzer 2100 system. Lastly, the library was sequenced using an Illumina HiSeq 2500 platform, and 250 bp paired-end reads were generated. The classification was based on the Greengenes database (https://greengenes.lbl.gov/).

[3] = system: HFD-Induced Obese Mice (C57BL/6); settings: mouse, in vivo
Protocol: as §1, §2

[4] = 0.01% GAR, 0.025% FOR, LMIX, HMIX

Compound: C=C[C@@]1(C)CC(=O)[C@]2(O)[C@@]3(C)[C@@H](O)CCC(C)(C)[C@@H]3[C@H](O)[C@H](OC(C)=O)[C@@]2(C)O1 [FOR, Forskolin, reference compound]
- Final weight [1, 4]: 30.5 g and 30.5 ± 2.6^c g
- Weight gain [1, 4]: 9.1 ± 1.8^c g
- Liver ([1]; organ weight): 1.5 ± 0.2^bc g
- abundance of Firmicutes ([2]; 12 weeks (HFD group 43.0%)): 33.5%
- abundance of Bacteroidetes ([2]; 12 weeks (HFD group 50.2%)): 62.2%
- OTUs difference between ND and HFD groups (Venn diagram) ([2]; 12 weeks, FIG. 23A): 34 OTUs
- Kidney [3]: 0.4 ± 0.02^a g
- Spleen [3]: 0.06 ± 0.01^a g
